Data reported in patent publication US4753953A, “Pyridonecarboxylic acid derivatives and antibacterial pharmaceutical compositions thereof” (priority 1985, dated 1988).
≈ marks a conversion by molar mass, not a printed value. Where two headings read alike, the source gives them in different places.

Key:
[1] = test system: Staphylococcus aureus 209 P; test: MIC, in vitro antibacterial activity (standard strains); type: cell-based; conditions: Staphylococcus aureus, 209P; 10^6 cells/ml; Gram +; read-out: MIC
S. aureus Smith = test: as above; type: cell-based, Staphylococcus aureus; conditions: Staphylococcus aureus; 10^6 cells/ml; Gram +; read-out: MIC
S. epidermidis IID 866 = test: as above; type: cell-based; conditions: Staphylococcus epidermidis, IID866; 10^6 cells/ml; Gram +; read-out: MIC
[2] = test system: Streptococcus pyogenes (S-8); test: as above; type: cell-based; conditions: Streptococcus pyogenes; 10^6 cells/ml; Gram +; read-out: MIC
S. pyogenes IID 692 = test: as above; type: cell-based, Streptococcus pyogenes; conditions: Streptococcus pyogenes, IID692; 10^6 cells/ml; Gram +; read-out: MIC
E. faecalis IID 682 = test: as above; type: cell-based; conditions: Enterococcus faecalis, IID682; 10^6 cells/ml; Gram +; read-out: MIC
E. coli ATCC 10536 = test: as above; type: cell-based, Escherichia coli; conditions: Escherichia coli, ATCC10536; 10^6 cells/ml; Gram -; read-out: MIC
[3] = test system: Proteus vulgaris IFO 3167; test: as above; type: cell-based; conditions: Proteus vulgaris, IFO3167; 10^6 cells/ml; Gram -; read-out: MIC
P. mirabilis IID 994 = test: as above; type: cell-based; conditions: Proteus mirabilis, IID994; 10^6 cells/ml; Gram -; read-out: MIC
[4] = test system: Morganella morganii IID 602; test: as above; type: cell-based; conditions: Morganella morganii, IID602; 10^6 cells/ml; Gram -; read-out: MIC
[5] = test system: Klebsiella pneumoniae KY(GN)6445; test: as above; type: cell-based; conditions: Klebsiella pneumoniae; 10^6 cells/ml; Gram -; read-out: MIC
[6] = test system: Enterobacter cloacae IID 977; test: as above; type: cell-based; conditions: Enterobacter cloacae, IID977; 10^6 cells/ml; Gram -; read-out: MIC
[7] = test system: Citrobacter freundii IID 976; test: as above; type: cell-based; conditions: Citrobacter freundii, IID976; 10^6 cells/ml; Gram -; read-out: MIC
[8] = test system: Serratia marcescens IID 618; test: as above; type: cell-based; conditions: Serratia marcescens, IID618; 10^6 cells/ml; Gram -; read-out: MIC
Shigella sonnei IID 969 = test: as above; type: cell-based; conditions: Shigella sonnei, IID969; 10^6 cells/ml; Gram -; read-out: MIC
Protocol: Minimal inhibitory concentrations (MICs) were determined in accordance with the method recommended by Japan Society of Chemotherapy.

[9] = test system: Salmonella enteritidis IID 604; test: as above; type: cell-based; conditions: Salmonella enterica; 10^6 cells/ml; Gram -; read-out: MIC
[10] = test system: Pseudomonas aeruginosa V-1; test: as above; type: cell-based; conditions: Pseudomonas aeruginosa, V1; 10^6 cells/ml; Gram -; read-out: MIC
P. aeruginosa IID 1210 = test: as above; type: cell-based, Pseudomonas aeruginosa; conditions: Pseudomonas aeruginosa, IID1210; 10^6 cells/ml; Gram -; read-out: MIC
P. cepacia GIFU 518 = test: as above; type: cell-based; conditions: Burkholderia cepacia, GIFU518; 10^6 cells/ml; Gram -; read-out: MIC
[11] = test system: Yersinia enterocolitica IID 981; test: as above; type: cell-based; conditions: Yersinia enterocolitica, IID981
[12] = test system: Alcaligenes faecalis 0114002; test: as above; type: cell-based; conditions: Alcaligenes faecalis, 0114002; 10^6 cells/ml; Gram -; read-out: MIC
[13] = test system: Bacteroides fragilis GM 7000; test: as above; type: cell-based; conditions: Bacteroides fragilis, GM7000; 10^6 cells/ml; Gram -; read-out: MIC
B. fragilis 0558 = test: as above; type: cell-based, Bacteroides fragilis; conditions: Bacteroides fragilis, 0558; 10^6 cells/ml; Gram -; read-out: MIC
B. fragilis 25285 = test: as above; type: cell-based, Bacteroides fragilis; conditions: Bacteroides fragilis, 25285; 10^6 cells/ml; Gram -; read-out: MIC
B. distasonis 8503 = test: as above; type: cell-based; conditions: Parabacteroides distasonis, 8503; 10^6 cells/ml; Gram -; read-out: MIC
[14] = test system: B. thetaiotaomicron (0661); test: as above; type: cell-based; conditions: Bacteroides thetaiotaomicron; 10^6 cells/ml; Gram -; read-out: MIC
[15] = test system: Fusobacterium mortiferum 4249; test: as above; type: cell-based; conditions: Fusobacterium mortiferum, 4249; 10^6 cells/ml; Gram -; read-out: MIC
F. varium KYA 8501 = test: as above; type: cell-based; conditions: Fusobacterium varium, KYA8501; 10^6 cells/ml; Gram -; read-out: MIC
[16] = test system: Eubacterium lentum GAI 5242; test: as above; type: cell-based; conditions: Eggerthella lenta, GAI5242; 10^6 cells/ml; Gram +; read-out: MIC
C. perfringens KYA 13123 = test: microbe, parasite or virus in culture; type: cell-based; conditions: Clostridium perfringens, KYA13123
C. ramosum = test: MIC, in vitro antibacterial activity (standard strains); type: cell-based; conditions: Thomasclavelia ramosa; 10^6 cells/ml; Gram +; read-out: MIC
[17] = test system: Peptostreptococcus anaerobius KYA 27337; test: as above; type: cell-based; conditions: Peptostreptococcus anaerobius, KYA27337; 10^6 cells/ml; Gram +; read-out: MIC
[18] = 10^6 cells/ml, Gram -, read-out: MIC

Row | SMILES | MIC [1] [µg/mL] | MIC (S. aureus Smith) [µg/mL] | MIC (S. epidermidis IID 866) [µg/mL] | MIC [2] [µg/mL] | MIC (S. pyogenes IID 692) [µg/mL] | MIC (E. faecalis IID 682) [µg/mL] | MIC (E. coli ATCC 10536) [µg/mL] | MIC [3] [µg/mL] | MIC (P. mirabilis IID 994) [µg/mL] | MIC [4] [µg/mL] | MIC [5] [µg/mL] | MIC [6] [µg/mL] | MIC [7] [µg/mL] | MIC [8] [µg/mL] | MIC (Shigella sonnei IID 969) [µg/mL] | MIC [9] [µg/mL] | MIC [10] [µg/mL] | MIC (P. aeruginosa IID 1210) [µg/mL] | MIC (P. cepacia GIFU 518) [µg/mL] | MIC [12] [µg/mL] | also measured
1 | C[C@H]1CN(c2c(F)cc3c(=O)c(C(=O)O)cn(C4CC4)c3c2F)C[C@H]1N.Cl (relative stereo) [Example 20, 7-(cis-3-Amino-4-methyl-1-pyrrolidinyl)-1-cyclopropyl-6,8-difluoro-1,4-dihydro-4-oxo-3-quinolinecarboxylic acid hydrochloride] | 0.05 | 0.05 | 0.05 | 0.2 | 0.39 | 0.2 | 0.025 | 0.025 | 0.05 | 0.05 | 0.025 | 0.05 | 0.025 | 0.05 | 0.0125 | 0.05 | 0.2 | 0.78 | 0.39 | 0.39 | MIC [11, 18]: 0.05 µg/mL; MIC [13]: 0.39 µg/mL; MIC (B. fragilis 0558): 0.39 µg/mL; MIC (B. fragilis 25285): 0.39 µg/mL; MIC (B. distasonis 8503): 0.78 µg/mL; MIC [14]: 0.78 µg/mL; MIC [15]: 0.39 µg/mL; MIC (F. varium KYA 8501): 1.56 µg/mL; MIC [16]: 0.2 µg/mL; MIC (C. perfringens KYA 13123): 0.2 µg/mL; MIC (C. ramosum): 1.56 µg/mL; MIC [17]: 0.39 µg/mL
2 | C[C@H]1CN(c2c(F)cc3c(=O)c(C(=O)O)cn(C4CC4)c3c2Br)C[C@H]1N (relative stereo) [Example 21, 7-(cis-3-Amino-4-methyl-1-pyrrolidinyl)-8-bromo-1-cyclopropyl-6-fluoro-1,4-dihydro-4-oxo-3-quinolinecarboxylic acid] | 0.025 (≈ 0.0589 µM) | 0.025 (≈ 0.0589 µM) | 0.05 (≈ 0.118 µM) | 0.1 (≈ 0.236 µM) | 0.2 (≈ 0.471 µM) | 0.2 (≈ 0.471 µM) | 0.0125 (≈ 0.0295 µM) | 0.0125 (≈ 0.0295 µM) | 0.025 (≈ 0.0589 µM) | 0.05 (≈ 0.118 µM) | 0.0125 (≈ 0.0295 µM) | 0.025 (≈ 0.0589 µM) | 0.025 (≈ 0.0589 µM) | 0.025 (≈ 0.0589 µM) | 0.0063 (≈ 0.0148 µM) | 0.025 (≈ 0.0589 µM) | 0.39 (≈ 0.919 µM) | 1.56 (≈ 3.68 µM) | 0.39 (≈ 0.919 µM) | 0.2 (≈ 0.471 µM) | MIC [11]: 0.025 µg/mL (≈ 0.0589 µM); MIC [13]: 0.1 µg/mL (≈ 0.236 µM); MIC (B. fragilis 0558): 0.05 µg/mL (≈ 0.118 µM); MIC (B. fragilis 25285): 0.05 µg/mL (≈ 0.118 µM); MIC (B. distasonis 8503): 0.39 µg/mL (≈ 0.919 µM); MIC [14]: 0.2 µg/mL (≈ 0.471 µM); MIC [15]: 0.2 µg/mL (≈ 0.471 µM); MIC (F. varium KYA 8501): 0.78 µg/mL (≈ 1.84 µM); MIC [16]: 0.05 µg/mL (≈ 0.118 µM); MIC (C. perfringens KYA 13123): 0.1 µg/mL (≈ 0.236 µM); MIC (C. ramosum): 0.78 µg/mL (≈ 1.84 µM); MIC [17]: 0.2 µg/mL (≈ 0.471 µM)
3 | CC1COc2c(N3C[C@@H](N)[C@@H](C)C3)c(F)cc3c(=O)c(C(=O)O)cn1c23.Cl (relative stereo) [Example 29, 10-(cis-3-Amino-4-methyl-1-pyrrolidinyl)-9-fluoro-2,3-dihydro-3-methyl-7-oxo-7H-pyrido[1,2,3-de][1,4]benzoxazine-6-carboxylic acid hydrochloride] | 0.2 | 0.2 | 0.2 | 0.39 | 0.39 | 0.39 | 0.05 | 0.05 | 0.1 | 0.2 | 0.05 | 0.2 | 0.1 | 0.1 | 0.05 | 0.1 | 0.39 | 6.25 | 1.56 | 1.56 | MIC [11, 18]: 0.2 µg/mL; MIC [13]: 3.13 µg/mL; MIC (B. fragilis 0558): 1.56 µg/mL; MIC (B. fragilis 25285): 1.56 µg/mL; MIC [14]: 6.25 µg/mL; MIC [15]: 0.78 µg/mL; MIC (F. varium KYA 8501): 6.25 µg/mL; MIC [16]: 0.78 µg/mL; MIC (C. perfringens KYA 13123): 0.39 µg/mL; MIC (C. ramosum): 12.5 µg/mL; MIC [17]: 1.56 µg/mL
